Among the data in ChEMBL document CHEMBL2163194, “Production of cytotoxic glidobactins/luminmycins by Photorhabdus asymbiotica in liquid media and live crickets” (J Nat Prod, 2012) are IC50 and Activity values, retold here.

The structures appear in SMILES notation.

Data set [1] is described as follows: Inhibition of 20S proteasome in human MIAPaCa2 cells after 90 mins by fluorescence-based […]. The conditions noted are these: mia paca-2. The data set is classed as cell-based.
The subject of another data set is MIA PaCa-2. The data set is described as follows: Cytotoxicity against human MIAPaCa2 cells assessed as reduction in cell viability after 72 hrs by MTT assay. The data set is classed as functional, cell-based. The note with it: MIA PaCa-2, 72 h.
Another data set has as its system NIH3T3. Nature of the data set: Cytotoxicity against mouse NIH/3T3 cells assessed as reduction in cell viability after 72 hrs by MTT assay. The conditions noted are these: nih3t3, 72 h. In kind it is cell-based.

Take `CCCCCCC/C=C/C=C/C(=O)N[C@H](C(=O)N[C@H]1C[C@@H](O)CCNC(=O)/C=C/[C@H](C)NC1=O)[C@@H](C)O` [GLIDOBACTIN A]: the IC50 in data set [1] came out at 0.069 µM; with MIA PaCa-2 it was 0.007 µM. Also, in the data set on NIH3T3, the Activity result was “Non-toxic”.
For `CCCCCCC/C=C/C=C/C(=O)N[C@H](C(=O)N[C@H]1CCCCNC(=O)/C=C/[C@H](C)NC1=O)[C@@H](C)O` [LUMINMYCIN A] the same measures were 0.088 µM, 0.018 µM and “Non-toxic”.
In the same order, the values of `CC(C)CCCCC/C=C/C=C/C(=O)N[C@H](C(=O)N[C@H]1CCCCNC(=O)/C=C/[C@H](C)NC1=O)[C@@H](C)O` [LUMINMYCIN D] are 0.38 µM, 0.11 µM and “Non-toxic”.
